In patent US7264956B2, “Compounds and methods for inhibiting axillary malodour” (Givaudan SA, priority 2001, dated 2007):
Like-named read-outs stand apart in the source and are kept apart here. Where a SMILES comes first, the peptide text is derived from it.

Tests used:
[1] = target: T1, enzyme activity in living cells of A×20 (Corynebacterium striatum, UniProt Q8GGD4); experiment: Low throughput screening for inhibitors, stationary phase living cells of A×20; type: cell-based; details: 5 mM; substrate Nα-lauroyl-L-glutamine, 2 h
T1 construct: stationary phase living cells of A×20; endogenous in cells; host or cells: Corynebacterium striatum Ax20, stationary-phase living cells
Method: (§1) Extracts of A×20 were prepared by mechanical disruption as described in Example 3. The extract (0.5 ml corresponding to 2 ml initial cell culture) was added to 3.5 ml of Buffer A and amended with 40 μl of substrate (Nα-lauroyl-L-glutamine, 5% stock solution in methanol). Parallel samples were additionally amended with potential inhibitory compounds to give a final concentration of 0.5 and 5 mM. The samples were incubated for 2 h and then extracted with MTBE and HCI and analysed for released lauric acid using capillary GC. By comparing the samples containing potential inhibitory compounds with control samples with enzyme and substrate only, the inhibition (%) was calculated. The same assay was also made either with purified enzyme from the wild-type strain (see example 3) or with extracts from E.coli Top 10/pBADgIII AMRE induced with arabinose (see example 6). Furthermore, the same assay was made using stationary phase living cells of A×20 instead of an isolated enzyme preparation. In this case successful uptake of the inhibitors into the cells and inhibition are measured simultaneously.

[2] = target: T2, isolated enzyme (extracts of A×20) (Corynebacterium striatum, UniProt Q8GGD4); experiment: Low throughput screening for inhibitors, isolated enzyme (released lauric acid by GC); type: biochemical; details: substrate Nα-lauroyl-L-glutamine, 2 h; for % inhibition of the isolated enzyme / inhibition at 5000 µM: 5 mM
T2 construct: an enzyme may be isolated from cellular extracts obtained from wild-type bacterial strains; endogenous in cells; host or cells: Corynebacterium striatum Ax20 (DSM 14267), mechanically disrupted; crude extract or chromatographically purified enzyme
Method: as §1

[3] = target: T3, enzyme extracted from Corynebacterium striatum A×20 (AMRE, Nα-acyl-glutamine-aminoacylase) (Corynebacterium striatum, UniProt Q8GGD4); experiment: Substrate specificity of the enzyme (capillary GC of released acid or alcohol); type: biochemical; details: for Cleavage by enzyme: 500 ppm in Buffer A, 24 h incubation
T3 construct: an enzyme may be isolated from cellular extracts obtained from wild-type bacterial strains; endogenous in cells; host or cells: Corynebacterium striatum Ax20 (DSM 14267), mechanically disrupted; crude extract or chromatographically purified enzyme
Method: To understand in detail the structural requirements of substrates, the enzyme extracted from Corynebacterium striatum A×20 was incubated with a wide variety of said compounds related to the originally isolated Nα-3-methyl-3-hydroxy-hexanoyl-L-glutamine present in sweat. Each compound was used at a concentration of 500 ppm in Buffer A, and analysis of released acid or alcohol was done by capillary GC after 24 h of incubation. First, different modifications at the N-terminus were tested.

T1 sequence (Q8GGD4 2-400): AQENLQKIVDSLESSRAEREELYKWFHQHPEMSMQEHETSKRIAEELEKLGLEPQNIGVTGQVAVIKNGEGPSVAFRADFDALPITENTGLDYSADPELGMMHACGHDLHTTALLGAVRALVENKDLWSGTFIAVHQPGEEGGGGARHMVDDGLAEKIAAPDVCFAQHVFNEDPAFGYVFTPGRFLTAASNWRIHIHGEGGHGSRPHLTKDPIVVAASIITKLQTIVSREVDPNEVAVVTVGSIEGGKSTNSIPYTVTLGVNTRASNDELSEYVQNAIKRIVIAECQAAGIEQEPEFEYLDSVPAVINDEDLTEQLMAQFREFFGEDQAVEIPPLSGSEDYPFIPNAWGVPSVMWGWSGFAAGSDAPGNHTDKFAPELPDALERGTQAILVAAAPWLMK
T2 sequence (Q8GGD4 2-400): as above
T3 sequence (Q8GGD4 2-400): as above

O=P(O)(O)CN(CP(=O)(O)O)CP(=O)(O)O [Aminotri(methylene-phosphonic acid)]
% inhibition of enzyme activity in living cells [1]: 55.7% | % inhibition of the isolated enzyme [2]: 76.6%

CCCC(C)=CC(=O)N[C@@H](CCC(N)=O)C(=O)O [Nα(3-methyl-2-hexenoyl)-L-glutamine]
cleavage of substrate by enzyme (in words) [3]: able to be cleaved

C[C@H](NC(=O)OCc1ccccc1)C(=O)O [compound 10, Carbobenzyloxy-L-alanine]
Cleavage by enzyme [3]: + (+ indicates cleavage < 10%)

c1ccc(-c2ccccn2)nc1 [2,2′-bipyridyl]
inhibition at 5000 µM [2]: 65%

CCCCCCCCCCCC(=O)N[C@@H](C)C(=O)O [compound 9, N-lauroyl-L-alanine]
Cleavage by enzyme [3]: + (+ indicates cleavage < 10%)

NC(=O)CC[C@H](NC(=O)OCC12CC3CC(CC(C3)C1)C2)C(=O)O [Nα-(2-Adamantan-1-yl-methoxycarbonyl)-L-glutamine]
cleavage of substrate by enzyme (in words) [3]: able to be cleaved

O=C(CC[C@H](NOCc1ccccc1)C(=O)O)NCc1ccccc1 [compound 22, 4-benzylcarbamoyl-2-(S)-benzyloxyamino-butyric acid]
cleavage of substrate by enzyme (in words) [3]: cannot cleave | Cleavage by enzyme [3]: −

O=C(O)CC[C@H](NC(=O)OCc1ccccc1)C(=O)O [compound 11, Carbobenzyloxy-L-glutamate]
Cleavage by enzyme [3]: −

O=C(N[C@@H](Cc1ccc(O)cc1)C(=O)O)OCc1ccccc1 [compound 15, Carbobenzyloxy-L-tyrosine]
Cleavage by enzyme [3]: −

CC(C)(C)C1CCC(OC(=O)N[C@@H](CCC(N)=O)C(=O)O)CC1 (stereo partly drawn) [Nα-(4-tert-Butylcyclohexyloxycarbonyl)-L-glutamine]
cleavage of substrate by enzyme (in words) [3]: able to be cleaved

NC(=O)CC[C@H](NC(=O)OCCc1ccccc1)C(=O)O [Nα-2-Phenylethyloxycarbonyl-L-glutamine]
cleavage of substrate by enzyme (in words) [3]: able to be cleaved

CCC(NCCNC(CC)C(=O)O)C(=O)O (stereo not drawn) [Ethylen-diimino-dibutyric acid]
% inhibition of enzyme activity in living cells [1]: 53.7% | % inhibition of the isolated enzyme [2]: 44.3%

CC(C)=CCCC(C)CCOC(=O)N[C@@H](CCC(N)=O)C(=O)O (stereo partly drawn) [Nα-3,7-Dimethyl-6-octenyloxycarbonyl-L-glutamine]
cleavage of substrate by enzyme (in words) [3]: able to be cleaved

CCC=CCCOC(=O)N[C@@H](CCC(N)=O)C(=O)O [Nα-(3-hexenyl)oxycarbonyl-L-glutamine]
cleavage of substrate by enzyme (in words) [3]: able to be cleaved

NC(=O)CC[C@@H](NC(=O)OCc1ccccc1)C(=O)O [compound 19, Carbobenzyloxy-D-glutamine]
cleavage of substrate by enzyme (in words) [3]: cannot cleave | Cleavage by enzyme [3]: −

CCCCCCCCCC(=O)N[C@@H](CCC(N)=O)C(=O)O [compound 3, Nα-decanoyl-L-glutamine]
Cleavage by enzyme [3]: +++ (+++ cleavage over 50%)

CCCCOC(=O)N[C@@H](CCC(N)=O)C(=O)O [Nα-Butyloxycarbonyl-L-glutamine]
cleavage of substrate by enzyme (in words) [3]: able to be cleaved

CCCCCCCCCCCC(=O)N[C@@H](CCCNC(=N)N)C(=O)O [compound 8, Nα-Lauroyl-L-arginine]
Cleavage by enzyme [3]: −

CCCCCCCCCCCCCC(=O)N[C@@H](CCC(N)=O)C(=O)O [Nα-tetradecanoyl-L-glutamine]
cleavage of substrate by enzyme (in words) [3]: able to be cleaved

CCCCCCCCCCCC(=O)N[C@@H](CC(=O)O)C(=O)O [compound 6, N-Lauroyl-L-aspartate]
Cleavage by enzyme [3]: −

CCCC(C)(O)CC(=O)N[C@@H](CCC(N)=O)C(=O)O (stereo partly drawn) [Nα-(3-hydroxy-3-methyl-hexanoyl)-L-glutamine]
cleavage of substrate by enzyme (in words) [3]: able to be cleaved

CCCCCCCCCC(=O)N[C@@H](CCC(N)=O)C(=O)O [Nα-decanoyl-L-glutamine]
cleavage of substrate by enzyme (in words) [3]: able to be cleaved

CC(C)C[C@H](NC(=O)OCc1ccccc1)C(=O)O [compound 18, Carbobenzyloxy-L-leucine]
Cleavage by enzyme [3]: −

NC(=O)CC[C@H](NC(=O)OCCC12CC3CC(CC(C3)C1)C2)C(=O)O [Nα-(2-Adamantan-1-yl-ethoxycarbonyl)-L-glutamine]
cleavage of substrate by enzyme (in words) [3]: able to be cleaved

C=CCCCCCCCCC(=O)N[C@@H](CCC(N)=O)C(=O)O [Nα-(11-undecenoyl)-L-glutamine]
cleavage of substrate by enzyme (in words) [3]: able to be cleaved

O=C(N[C@@H](CO)C(=O)O)OCc1ccccc1 [compound 14, Carbobenzyloxy-L-serine]
Cleavage by enzyme [3]: −

CC(C)=CCCC(C)CCOC(=O)N[C@@H](CCC(N)=O)C(=O)O (stereo partly drawn) [compound 5, Nα-3,7-Dimethyl-6-octenyloxycarbonyl-L-glutamine]
cleavage of substrate by enzyme (in words) [3]: can cleave | Cleavage by enzyme [3]: +++ (+++ cleavage over 50%)

c1ccc(CN(CCN(Cc2ccccn2)Cc2ccccn2)Cc2ccccn2)nc1 [N,N,N′,N′-tetrakis-(2-pyridylmethyl)-ethylendiamine]
inhibition at 5000 µM [1]: 85.2% | inhibition at 5000 µM [2]: 87.9%

OC(CS)C(O)CS (stereo not drawn) [Dithiothreitol, 2,3-dihydroxy-butane-1,4-dithiol]
inhibition at 500 µM ([2]; 0.5 mM): 98% | inhibition at 5000 µM [2]: 100%

NC(=O)CC[C@H](NC(=O)OCc1ccccc1)C(=O)NCC(=O)O [compound 21, Carbobenzyloxy-L-glutamine- Gly-OH] (HELM PEPTIDE1{[O=C(OCc1ccccc1)[*:2]].Q.G}$$$$V2.0)
cleavage of substrate by enzyme (in words) [3]: does not cleave | Cleavage by enzyme [3]: −

CCCCCCCCCCCC(=O)N[C@@H](CCCCN)C(=O)O [compound 7, Nα-Lauroyl-L-lysine]
Cleavage by enzyme [3]: −

COC(=O)[C@H](CCC(N)=O)NC(=O)OCc1ccccc1 [compound 20, Carbobenzyloxy-L-glutamine-O-Me]
cleavage of substrate by enzyme (in words) [3]: does not cleave | Cleavage by enzyme [3]: −

O=C(O)c1cccc(C(=O)O)n1 [Pyridine-2,6dicarboxylic acid]
inhibition at 5000 µM [1]: 64.3% | inhibition at 5000 µM [2]: 100%

O=C(O)CNC(=O)OCc1ccccc1 [compound 16, Carbobenzyloxy-L-glycine]
Cleavage by enzyme [3]: −

CC(CCOC(=O)N[C@@H](CCC(N)=O)C(=O)O)CCc1ccccc1 (stereo partly drawn) [Nα-(3-Methyl-5-phenylpentanoxycarbonyl)-L-glutamine]
cleavage of substrate by enzyme (in words) [3]: able to be cleaved

COc1ccc(SC(=O)N[C@@H](CCC(N)=O)C(=O)O)cc1 [Nα-(4-methoxy-phenylsulfanylcarbonyl)-L-glutamine]
cleavage of substrate by enzyme (in words) [3]: able to be cleaved

O=C(N[C@@H](Cc1c[nH]cn1)C(=O)O)OCc1ccccc1 [compound 17, Carbobenzyloxy-L-histidine]
Cleavage by enzyme [3]: −

NC(=O)CC[C@H](NC(=O)OCc1ccccc1)C(=O)O [compound 4, Carbobenzyloxy-L-glutamine]
Cleavage by enzyme [3]: ++ (++ cleavage 10–50%) | cleavage of substrate by enzyme (in words) ([3]; listed as Nα-Carbobenzyloxy-L-glutamine): able to be cleaved | cleavage of substrate by enzyme (in words) ([3]; listed as Nα-carbobenzyloxy-L-glutamine): can cleave

O=C(O)CNCCNCC(=O)O [Ethylendiamine-2-2′-diacetic acid]
% inhibition of enzyme activity in living cells [1]: 58.3% | % inhibition of the isolated enzyme [2]: 100%

CC1=CCC(CCOC(=O)N[C@@H](CCC(N)=O)C(=O)O)C1(C)C (stereo partly drawn) [Nα-[2-(2,2,3-trimethyl-cyclopent-3-enyl)-ethoxycarbonyl)-L-glutamine]
cleavage of substrate by enzyme (in words) [3]: able to be cleaved

O=C(O)C[C@H](NC(=O)OCc1ccccc1)C(=O)O [compound 13, Carbobenzyloxy-L-aspartate]
Cleavage by enzyme [3]: −
